These results are taken from patent publication US8916561B2, “Substituted quinoxaline compounds for the inhibition of PASK” (BioEnergenix, LLC, priority 2011, dated 2014).

Holding throughout (format): biochemical
One experiment deals with T1, PASK (UniProt #Q96RG2; human recombinant N-terminal GST tagged construct, residues 879-1323) (Homo sapiens, UniProt Q96RG2).
T1 construct: human recombinant N-terminal GST tagged construct, residues 879-1323; GST (N); host or cells: insect cells
Nature of the experiment: PASK ATP Radiochemical Assay. The following applies: 33P-ATP radiochemical assay, Myelin Basic Protein substrate; read-out: IC50 Kinase Domain. As for the experimental part: Purified PASK (UniProt #Q96RG2; human recombinant N-terminal GST tagged construct, residues 879-1323) from insect cells (final concentration 5 nM) is added to freshly prepared Base Reaction Buffer containing 20 mM HEPES (pH 7.5), 10 mM MgCl2, 1 mM EGTA, 0.02% Brij35, 0.02 mg/ml BSA, 0.1 mM Na3VO4, 2 mM DTT, 1% DMSO and Myelin Basic Protein (20 μM final). Test compounds in DMSO are then added and the mixture, followed by delivery of ^33P-ATP (specific activity 0.01 μCi/μl final) to initiate the reaction. The kinase reaction is incubated for 120 min at room temperature. The entire reaction mixture is washed through onto a P81 Phosphocellulose paper and washed three times for 10 minutes in 75 mM phosphoric acid and once in methanol prior to drying and scintillation counting.

Another experiment concerns the target T2, PASK (Invitrogen) (Homo sapiens, UniProt Q96RG2).
T2 construct: IC50 Kinase Domain; purchased Invitrogen
The experiment is described as follows: PAS Kinase FRET Assay. Particulars: TR-FRET (665 nm/615 nm), Ulight-peptide substrate; read-out: IC50 Kinase Domain. From the text: The aim of the FRET assay is to determine the inhibition potential of test compounds on targeted kinase. This assay platform provides a homogenous screening method for measuring kinase activity by quantitating the amount of phospho-substrate in solution following a kinase reaction.
In the presence of kinase and ATP, the Ulight-peptide is phosphorylated and captured by an anti-phospho-substrate antibody, which brings the Eu chelate donor and Ulight acceptor dyes into close proximity. Upon excitation at 340 nm, the Eu chelate transfers its energy to the Ulight dye, resulting in a fluorescent light emission at 665 nm.
Titration of kinase at 1 mM ATP was achieved via the following protocol. After making serial three-fold dilutions of PASK (Invitrogen) in reaction buffer across the plate; 5 μl of kinase dilution and 5 μl substrate/ATP mix were added to the wells of the white Optiplate-384 (PerkinElmer). The contents of the plate were incubated at RT for 1 h. The reaction was stopped by adding 5 μl of stop solution to each test well followed by mixing and incubation at RT for 10 minutes. 5 μl of detection mix (detection antibody diluted in detection butler) was added; the contents of the plate were mixed and then incubated in the dark for 1 hour at RT. The signal was recorded at TR-FRET mode (665 nm/615 nm), The results were graphed to calculate the EC50.
Titration of ATP at the EC50 concentration of kinase to determine ATP Km,app. was performed using the following method. After making serial dilutions of ATP (Invitrogen), 5 μl of ATP dilution and 5 μl substrate/kinase mix were added to the wells of the white Optiplate-384 (PerkinElmer). The contents of the plate were and incubated at RT for 1 h. The reaction was stopped by adding 5 μl of stop solution to each test well followed by mixing and incubation at RT for 10 minutes. 5 μl of detection mix (detection antibody diluted in detection buffer) was added; the contents of the plate were mixed and then incubated in the dark for 1 hour at RT. The signal was recorded at TR-FRET mode (665 nm/615 nm). The results were graphed to calculate the EC50 as the ATP Km,app.
Compound screening was done via the following method. 10 mM stock solution of test compound in DMSO was prepared by dissolving test compound in DMSO at RT for 1 hour, and then sonicating at 100% output for 8 minutes. If compound is not soluble under this condition, it was diluted to 3 mM. Kinase reaction buffer was prepared containing 10 mM MgCl2, 50 mM HEPES, 1 EGTA, 0.01% TWEEN-20, 2 mM WT. Serial dilutions of the test compounds were prepared at 4× final assay concentrations using Freedom EVO200® dispensing system as follows: 12×10^−5M, 4×10^−5 M, 1.33×10^−5M, 4.44×10^−6 M. 1.48×10^−6 M, 4.92×10^−7 M, 1.65×10^−7 M, […], 1.82×10^−8 M, 6.09×10^−9, 2.03×10^−9 M. Test compounds (2.5 μl at 4× the final assay concentration) was added to wells using Freedom EVO200® dispensing system. As a positive control, 2.5 μl of positive compound was added to assay wells, and 2.5 μl of DMSO to assay wells as vehicle control. Kinase solution was prepared in reaction buffer at 2× final assay concentration. Kinase solution (5 μl) was added to each well of the assay plate. The substrate and ATP solution was prepared in kinase reaction buffer at 4× final assay concentration. The kinase reaction was started by adding 2.5 μl of substrate+ATP mix solution to each well of the assay plate. The plate is mixed on a plate shaker; then covered and allowed to react for 2 hours in the dark at 25° C. without shaking. The reaction was stopped by adding 5 μl of stop solution to each test well followed by mixing and incubation at RT for 10 minutes in the dark. 5 μl of detection mix (detection antibody diluted in detection buffer) was added; the contents of the plate were mixed and then incubated in the dark for 1 hour at RT. The signal was recorded at TR-FRET mode (665 nm/615 nm).

For another experiment, the target named is hPASK (Homo sapiens, UniProt Q96RG2). The experiment is described as follows: PAS Kinase Luminescence Assay (Kinase-Glo). Set-up: IC50 Kinase Domain; host or cells: insect cells. The following applies: MBP substrate, read-out: IC50 Kinase Domain. As for the experimental part:
One assay for purified hPASK activity utilizes the Kinase-Glo Luminescent Kinase Assay (Promega), which quantifies the amount of ATP remaining in solution following kinase reaction. The assay is carried out in a 96-well plate format and is performed by adding a volume of Kinase-Glo Reagent (Promega, catalog #V3771) equal to the volume of solution in the well of a completed kinase reaction. Kinase-Glo reagent contains Luciferase and its substrate. After addition to a kinase reaction it allows to measure luminescence. The amount of ATP left in solution at the time of Kinase-Glo Plus addition is directly proportional to the luminescence that is measured in each well, and inversely correlated with kinase activity.
Purified hPASK from insect cells (0.02 μg) is added to a 50 μL reaction mix containing 40 mM HEPES (pH 7.0), 100 mM KCl, 5 mM MgCl2, 1 mM DTT and 1 μg of MBP protein. Inhibitory compounds are then added and the mixture is incubated for 10 min at 25° C. before adding 5 μL of ATP (at desired concentration). The reaction is allowed to proceed at 25° C. for 1 hour before adding 50 μL of Kinase-Glo reagent. The luminescence is measured as soon as 10 minutes after Kinase-Glo reagent is added.
In general terms: Kinase-Glo measures the ATP left after a reaction by luminescence.

The IC50 is the point on the concentration scale where inhibition reaches its midpoint.

T1 sequence (Q96RG2 879-1323, stated change not applied): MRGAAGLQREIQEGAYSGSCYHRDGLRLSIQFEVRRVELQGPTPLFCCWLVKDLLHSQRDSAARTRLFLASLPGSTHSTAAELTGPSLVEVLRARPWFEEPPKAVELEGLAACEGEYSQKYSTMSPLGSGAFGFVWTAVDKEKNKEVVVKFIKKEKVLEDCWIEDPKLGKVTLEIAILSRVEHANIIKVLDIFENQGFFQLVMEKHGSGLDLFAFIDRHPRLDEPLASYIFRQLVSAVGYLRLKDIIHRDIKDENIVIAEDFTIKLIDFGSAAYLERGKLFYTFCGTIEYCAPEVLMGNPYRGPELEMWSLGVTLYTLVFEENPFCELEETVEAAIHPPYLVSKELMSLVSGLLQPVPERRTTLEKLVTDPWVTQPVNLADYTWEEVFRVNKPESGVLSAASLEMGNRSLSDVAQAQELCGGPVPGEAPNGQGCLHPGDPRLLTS
T2 sequence (Q96RG2 999-1251 limits assumed): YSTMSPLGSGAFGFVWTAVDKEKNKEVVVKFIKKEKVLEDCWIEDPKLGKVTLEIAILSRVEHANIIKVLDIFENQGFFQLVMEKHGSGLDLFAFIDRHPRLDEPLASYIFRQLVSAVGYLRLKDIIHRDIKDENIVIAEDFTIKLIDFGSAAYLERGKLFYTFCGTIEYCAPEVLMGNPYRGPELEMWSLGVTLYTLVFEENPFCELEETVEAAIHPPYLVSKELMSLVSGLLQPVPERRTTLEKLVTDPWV
Sequence of hPASK (Q96RG2 999-1251 limits assumed): as above

For the compound `Fc1ccc(-c2nc3ccc(-c4nnn[nH]4)cc3nc2-c2ccc(F)cc2)cc1` [Example 25, 2,3-Bis(4-fluorophenyl)-6-(1H-tetrazol-5-yl) quinoxaline], the half-inhibitory concentration (IC50) at PASK is not above 10 µM.

Take `CCc1ccc(-c2nc3ccc(-c4nnn[nH]4)cc3nc2-c2ccc(CC)cc2)cc1` [Example 27, 2,3-Bis(4-ethylphenyl)-6-(1H-tetrazol-5-yl)quinoxaline]: the IC50 on PASK is not above 10 µM.

`CC[C@@H](C)N(C)c1nc2cc(-c3nnn[nH]3)ccc2nc1-c1ccc(F)cc1` [Example 30, (R)—N-sec-Butyl-3-(4-fluorophenyl)-N-methyl-7-(1H-tetrazol-5-yl)quinoxalin-2-amine]: the IC50 on PASK (Invitrogen) is not above 10 µM.

For the compound `CC(C)N(C)c1nc2cc(-c3nnn[nH]3)ccc2nc1-c1ccc2[nH]ncc2c1` [Example 31, 3-(1H-Indazol-5-yl)-N-methyl-N-(propan-2-yl)-7-(1H-tetrazol-5-yl)quinoxalin-2-amine], on PASK (Invitrogen), the IC50 was not above 10 µM.

With `Cc1cc2cc(-c3nc4ccc(-c5nnn[nH]5)cc4nc3N(C)C(C)C)ccc2[nH]1` [Example 32, N-Isopropyl-N-methyl-3-(2-methyl-1H-indol-5-yl)-7-(1H-tetrazol-5-yl)quinoxalin-2-amine], the IC50 at PASK (Invitrogen) and on PASK was not above 10 µM in each case.

In the case of `C[C@H]1CCCN1c1nc2cc(-c3nn[nH]n3)ccc2nc1-c1ccc(F)cc1` [Example 29, (S)-2-(4-Fluorophenyl)-3-(2-methylpyrrolidin-1-yl)-6-(2H-tetrazol-5-yl)quinoxaline], the IC50 on PASK (Invitrogen) and at PASK was not above 10 µM throughout.

As for `COc1ccc(-c2nc3ccc(S(=O)(=O)N4CCOCC4)cc3nc2-c2ccc(OC)cc2)cc1` [Example 37, 4-(2,3-Bis(4-methoxyphenyl)quinoxalin-6-ylsulfonyl)morpholine], the half-inhibitory concentration (IC50) on hPASK is not above 10 µM.

For `COc1ccc(-c2nc3ccc(S(=O)(=O)O)cc3nc2-c2ccc(OC)cc2)cc1` [Example 38, 2,3-Bis(4-methoxyphenyl)quinoxaline-6-sulfonic acid], the IC50 at PASK (Invitrogen) was not above 10 µM.

Turning to `COc1ccc(-c2nc3ccc(S(N)(=O)=O)cc3nc2-c2ccc(OC)cc2)cc1` [Example 35, 2,3-Bis(4-methoxyphenyl)quinoxaline-6-sulfonamide], the IC50 at hPASK is not above 10 µM.

Regarding `CC(C)N(C)c1nc2cc(-c3nnn[nH]3)ccc2nc1-c1cc2cc(F)ccc2o1` [Example 33, 3-(5-Fluorobenzofuran-2-yl)-N-methyl-N-(propan-2-yl)-7-(1H-tetrazol-5-yl)quinoxalin-2-amine], on PASK (Invitrogen), the IC50 was not above 10 µM.

As for `COc1ccc(-c2nc3ccc(-c4nnn[nH]4)cc3nc2-c2ccc(OC)cc2)cc1` [Example 26, 2,3-Bis(4-methoxyphenyl)-6-(1H-tetrazol-5-yl)quinoxaline], the IC50 at PASK (Invitrogen) and at PASK was not above 10 µM throughout.

Take `Cc1[nH]c2ccc(-c3nc4ccc(-c5nnn[nH]5)cc4nc3N(C)C(C)C)cc2c1C(=O)C(F)(F)F` [Example 24, 2,2,2-Trifluoro-1-(5-(3-(isopropyl(methyl)amino)-6-(1H-tetrazol-5-yl)quinoxalin-2-yl)-2-methyl-1H-indol-3-yl)ethanone]: the IC50 at PASK (Invitrogen) was not above 10 µM.

On to `CNS(=O)(=O)c1ccc2nc(-c3ccc(OC)cc3)c(-c3ccc(OC)cc3)nc2c1` [Example 36, 2,3-Bis(4-methoxyphenyl)-N-methylquinoxaline-6-sulfonamide], for which the IC50 at hPASK was more than 10 µM.

As to `COc1ccc(-c2nc3ccc(NS(C)(=O)=O)cc3nc2-c2ccc(OC)cc2)cc1` [Example 34, N-(2,3-Bis(4-methoxyphenyl)quinoxalin-6-yl)methanesulfonamide], the IC50 at hPASK and on PASK was not above 10 µM throughout.

On to `CC(C)N(C)c1nc2cc(-c3nn[nH]n3)ccc2nc1-c1ccc(F)cc1` [Example 28, 3-(4-Fluorophenyl)-N-isopropyl-N-methyl-7-(2H-tetrazol-5-yl)quinoxalin-2-amine], for which the IC50 at PASK (Invitrogen) and on PASK was not above 10 µM throughout.
